In PubChem BioAssay (NCI):
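GI50: concentration for 50% inhibition of growth. TGI marks complete inhibition of growth.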

Assays:
Assay in all cases: NCI-60 cell line screen, 384-well format
BT-549 breast = system: BT-549 breast
HL-60(TB) leukemia = system: HL-60(TB) leukemia
HOP-62 NSCLC = system: HOP-62 NSCLC
HS 578T breast = system: HS 578T breast
HT29 colon = system: HT29 colon
LOX IMVI melanoma = system: LOX IMVI melanoma
MALME-3M melanoma = system: MALME-3M melanoma
MDA-MB-435 melanoma = system: MDA-MB-435 melanoma
MDA-MB-468 breast = system: MDA-MB-468 breast
OVCAR-3 ovarian = system: OVCAR-3 ovarian
OVCAR-8 ovarian = system: OVCAR-8 ovarian
SK-OV-3 ovarian = system: SK-OV-3 ovarian
UACC-257 melanoma = system: UACC-257 melanoma

For `NC(=O)c1nc(-c2c(F)cccc2Cl)oc1Nc1ccc(C(=O)N2CCOCC2)cc1`, the GI50 (BT-549 breast) was 2 µM, the TGI (BT-549 breast) was 5.84 µM and the GI50 (HL-60(TB) leukemia) was 0.36 µM. The TGI (HL-60(TB) leukemia) was 1.09 µM, the GI50 (HOP-62 NSCLC) was 2.41 µM and the TGI (HOP-62 NSCLC) was 19.6 µM. The GI50 (HS 578T breast) was 1.34 µM, the TGI (HS 578T breast) was 3.75 µM and the GI50 (HT29 colon) was 2.48 µM. For the same molecule, the TGI (HT29 colon) was 25 µM, the GI50 (LOX IMVI melanoma) was 0.869 µM and the TGI (LOX IMVI melanoma) was 2.39 µM. For the same molecule, the GI50 (MALME-3M melanoma) was 4.68 µM, the TGI (MALME-3M melanoma) was 12.3 µM and the GI50 (MDA-MB-435 melanoma) was 11.8 µM. The TGI (MDA-MB-435 melanoma) was > 51 µM, the GI50 (MDA-MB-468 breast) was 1.5 µM and the TGI (MDA-MB-468 breast) was 4.23 µM. The GI50 (OVCAR-3 ovarian) was 1.6 µM, the TGI (OVCAR-3 ovarian) was 7.65 µM and the GI50 (OVCAR-8 ovarian) was 4.51 µM. It also gave a TGI (OVCAR-8 ovarian) of 18.7 µM, a GI50 (SK-OV-3 ovarian) of 6.28 µM and a TGI (SK-OV-3 ovarian) of 28.6 µM. The GI50 (UACC-257 melanoma) was 23.1 µM and the TGI (UACC-257 melanoma) was > 54.8 µM.
